Measured values: US20220401514A1, “ANTIMICROBIAL, BACTERIOPHAGE-DERIVED POLYPEPTIDES AND THEIR USE AGAINST GRAM-NEGATIVE AND ACID-FAST BACTERIA” (CONTRAFECT CORPORATION, priority 2019, published 2022)
Converted amounts (≈) assume the structure as drawn. Like-named read-outs stand apart in the source and are kept apart here.

What was measured:
[1] = tested on: P. aeruginosa strain CFS-1292; test: MIC in presence and absence of NaCl (140 mM); type: cell-based, Pseudomonas aeruginosa
Method: Certain Chp peptides were evaluated over a range of physiological NaCl levels and pH values, and were further evaluated for activity in the presence of various divalent cations.

[2] = tested on: M. kansasii Hauduroy ATCC 12478; test: 45 hr MIC against M. kansasii (NTM), Mueller Hinton broth; type: cell-based, Mycobacterium kansasii
Pseudomonas aeruginosa = test: microbe, parasite or virus in culture; type: cell-based
S. maltophilia = test: MIC against S. maltophilia isolates; type: cell-based, Stenotrophomonas maltophilia; settings: S. maltophilia isolates (n per peptide in table)
Summary of the method: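 MIC in μg/mL for Chp peptides across several S. maltophilia isolates, n denoting the number of isolates tested.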

[3] = Stability assessment in 100% CAA; type: in vitro ADME; parameters: unit not given beside the values
Method: Stability was assessed after incubation in 100% human serum at 37° C. after 10 minutes, 1 hour, and 2 hours.
Stability assessment was further conducted in 100% CAA and rabbit serum using the same methodology discussed above.

M. avium = test: 45 hr MIC against M. avium (NTM); type: cell-based, Mycobacterium avium; settings: M. avium Chester ATCC 700898
[4] = tested on: Mycobacterium tuberculosis strains
Method: MIC values for various Chp peptides were determined using the CLSI method for broth microdilution in 96-well microtiter format.
Next, MIC values for various Chp peptides were determined using the CLSI method above for broth microdilution in 96-well microtiter format for two different Mycobacterium tuberculosis strains. The MIC was determined as explained above for the NTM strains.

M. intracellulare = test: 45 hr MIC against M. intracellulare (NTM); type: cell-based, Mycobacterium intracellulare; settings: M. intracellulare (Cuttino and McCabe) Runyon ATCC 13950
Acinetobacter baumannii = test: microbe, parasite or virus in culture; type: cell-based
Enterobacter cloacae = test: microbe, parasite or virus in culture; type: cell-based
Summary of the method: (§1)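 Strains are exposed to peptide dilutions in CAA containing human serum, and the minimal inhibitory concentration is recorded.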

Escherichia coli = test: microbe, parasite or virus in culture; type: cell-based
Summary of the method: as §1

[5] = tested on: P. aeruginosa strain CFS-1292; test: MIC in presence of mouse, rat, rabbit and human serum ([…] each); type: cell-based, Pseudomonas aeruginosa; settings: P. aeruginosa CFS-1292
Method: The activity of several Chp peptides against P. aeruginosa strain CFS-1292 in animal serum was evaluated. […] Rat, mouse, and rabbit serum were all obtained from pooled gender samples.

[6] = tested on: carbapenem-resistant P. aeruginosa clinical isolate CFS-1292; test: MIC by modified CLSI broth microdilution against P. aeruginosa CFS-1292 (CAA, CAA + human serum); type: cell-based, Pseudomonas aeruginosa
[7] = tested on: P. aeruginosa strain CFS-1292; test: MIC at pH 6, pH 7 and pH 8; type: cell-based, Pseudomonas aeruginosa
Method: The Chp peptides were further evaluated at varying pH levels. The MIC values were determined at pH 6, pH 7, and pH 8 for 18 different Chp peptides against P. aeruginosa strain CFS-1292. […]

[8] = P. aeruginosa isolates (n per peptide in table)
[9] = A. baumannii isolates (n per peptide in table)
[10] = E. cloacae isolates (n per peptide in table)
[11] = E. coli isolates (n per peptide in table)

MARRYRLSRRRSRRLFSRTALRMHRRNRLRRIMRGGIRF [Chp4]
Fold change in MIC ([1]; CAA + 140 mM NaCl versus CAA without added NaCl): 1 | MIC, CAA + 140 mM NaCl ([1]; CAA + 140 mM NaCl, P. aeruginosa CFS-1292): 0.5 µg/mL | MIC, CAA (no added NaCl) ([1]; CAA, no added NaCl, P. aeruginosa CFS-1292): 0.5 µg/mL | 45 hr MIC [2]: >0.125 µg/mL | MIC (Pseudomonas aeruginosa; P. aeruginosa 453 (Human clinical isolate, HSS), RSC 1292, CAA without human serum): 4 µg/mL | MIC (Pseudomonas aeruginosa; P. aeruginosa (ATCC 14213, human hip wound), RSC 1111, CAA without human serum): 4 µg/mL | MIC (Pseudomonas aeruginosa; P. aeruginosa (ATCC 15152, abscess in middle ear), RSC 1110, CAA without human serum): 4 µg/mL | MIC (Pseudomonas aeruginosa; P. aeruginosa (ATCC 15692, infected wound), RSC 489, CAA without human serum): 4 µg/mL | MIC (Pseudomonas aeruginosa; P. aeruginosa (ATCC 15692, infected wound), RSC 1115, CAA without human serum): 4 µg/mL | MIC (Pseudomonas aeruginosa; P. aeruginosa (ATCC 17646, human liver abscess), RSC 1109, CAA without human serum): 4 µg/mL | MIC (Pseudomonas aeruginosa; P. aeruginosa (ATCC 19142, tracheobronchial secretion), RSC 1108, CAA without human serum): 4 µg/mL | MIC (Pseudomonas aeruginosa; P. aeruginosa (ATCC 25102, bacteriophage host), RSC 1114, CAA without human serum): 4 µg/mL | MIC (Pseudomonas aeruginosa; P. aeruginosa (ATCC 27853, MIC control strain), RSC 815, CAA without human serum): 4 µg/mL | MIC (Pseudomonas aeruginosa; P. aeruginosa (ATCC BAA-27, lab strain), RSC 1113, CAA without human serum): 4 µg/mL | MIC (Pseudomonas aeruginosa; P. aeruginosa (PAO1, alternate source, HER1018), RSC 490, CAA without human serum): 4 µg/mL | MIC50 (Pseudomonas aeruginosa; [8]): 1 µg/mL | MIC100 (Pseudomonas aeruginosa; [8]): 1 µg/mL | MIC Range (Pseudomonas aeruginosa; [8]): 0.5 to 1 µg/mL | MIC50 (S. maltophilia): 0.5 µg/mL | MIC100 (S. maltophilia): 2 µg/mL | MIC Range (S. maltophilia): 0.5 to 8 µg/mL | MIC (100% CAA) [3]: 0.25 | 45 hr MIC (M. avium): 1 µg/mL | MIC ([4]; Mycobacterium tuberculosis (Zopf) Lehmann and Neumann ATCC 25177): 16 µg/mL | MIC ([4]; Mycobacterium tuberculosis (Zopf) Lehmann and Neumann ATCC 35817): 8 µg/mL | 45 hr MIC (M. intracellulare): 1 µg/mL | MIC50 (Acinetobacter baumannii; [9]): 0.5 µg/mL | MIC100 (Acinetobacter baumannii; [9]): 1 µg/mL | MIC Range (Acinetobacter baumannii; [9]): 0.25 to 1 µg/mL | MIC (Acinetobacter baumannii; Acinetobacter baumannii (clinical isolate HSS), RSC 30, CAA without human serum): 4 µg/mL | MIC (Acinetobacter baumannii; Acinetobacter baumannii (clinical isolate HSS), RSC 32, CAA without human serum): 4 µg/mL | MIC (Acinetobacter baumannii; Acinetobacter baumannii ATCC BAA 747, CAA supplemented with human serum): 0.125 µg/mL | MIC50 (Enterobacter cloacae; [10]): 0.5 µg/mL | MIC100 (Enterobacter cloacae; [10]): 1 µg/mL | MIC Range (Enterobacter cloacae; [10]): 0.25 to 2 µg/mL | MIC (Enterobacter cloacae; Enterobacter cloacae (ATCC 13047, MIC control strain), RSC 1240, CAA without human serum): 4 µg/mL | MIC (Enterobacter cloacae; Enterobacter cloacae ATCC 13047, CAA supplemented with human serum): 1 µg/mL | MIC (Escherichia coli; E. coli (ATCC 25922, MIC control strain), RSC 813, CAA without human serum): 2 µg/mL | MIC (Escherichia coli; E. coli (HM346, colon, Crohn's disease), RSC 1212, CAA without human serum): 4 µg/mL | MIC50 (Escherichia coli; [11]): 1 µg/mL | MIC100 (Escherichia coli; [11]): 2 µg/mL | MIC Range (Escherichia coli; [11]): 0.5 to 4 µg/mL | MIC (Escherichia coli; Escherichia coli ATCC 25922, CAA supplemented with human serum): 0.5 µg/mL | MIC BALB/C Mouse Serum ([5]; BALB/C mouse serum […]): 32 µg/mL | MIC CAA ([5]; CAA): 0.5 µg/mL | MIC New Zealand White Rabbit Serum ([5]; New Zealand White rabbit serum […]): 2 µg/mL | MIC Sprague Dawley Rat Serum ([5]; Sprague Dawley rat serum […]): 2 µg/mL | MIC Human Serum ([5]; human serum […]): 0.5 µg/mL | MIC (μg/mL) against CFS-1292 in 100% CAA (1st run/2nd run) ([6]; 100% CAA, 1st run or single value): 0.5 µg/mL | MIC (μg/mL) against CFS-1292 in CAA + […] human serum ([6]; CAA + […] human serum): 0.5 µg/mL | MIC ([7]; CAA media (pH 7)): 0.5 µg/mL | MIC ([7]; pH 6): 0.25 µg/mL | MIC ([7]; pH 7): 0.5 µg/mL | MIC ([7]; pH 8): 1 µg/mL

NC[C@H]1O[C@H](O[C@H]2[C@H](O)[C@@H](O[C@H]3O[C@H](CO)[C@@H](O)[C@H](N)[C@H]3O)[C@H](N)C[C@@H]2N)[C@H](N)C[C@@H]1O [tobramycin, reference compound]
MIC ([2]; Mycobacterium kansasii, ATCC12478, 45 h, read-out: 45 hr MIC): 16 µg/mL (≈ 34.2 µM) | MIC (Pseudomonas aeruginosa; Pseudomonas aeruginosa, ATCC27853, P. aeruginosa (ATCC 27853), control agents of Table 8, read-out: MIC (in brackets beside MBEC)): < 0.5 µg/mL | MIC (M. avium; Mycobacterium avium, ATCC700898, 45 h, read-out: 45 hr MIC): 0.125 µg/mL (≈ 0.267 µM) | MIC (M. intracellulare; Mycobacterium intracellulare, ATCC13950, 45 h, read-out: 45 hr MIC): 0.25 µg/mL (≈ 0.535 µM) | MIC (Acinetobacter baumannii; Acinetobacter baumannii, ATCCBAA747, A. baumanni (ATCC BAA-747), control agents of Table 8, read-out: MIC (in brackets beside MBEC)): < 0.5 µg/mL | MIC (Enterobacter cloacae; Enterobacter cloacae, CCUG63317, E. cloacae (CCUG 63317), control agents of Table 8, read-out: MIC (in brackets beside MBEC)): < 0.5 µg/mL | MIC (Escherichia coli; Escherichia coli, ATCC25922, E. coli (ATCC 25922), control agents of Table 8, read-out: MIC (in brackets beside MBEC)): < 0.5 µg/mL | MIC (Escherichia coli; Escherichia coli, ATCC35329, E. coli (ATCC 35329), control agents of Table 8, read-out: MIC (in brackets beside MBEC)): < 0.5 µg/mL | MIC (Escherichia coli; Escherichia coli, E. coli (EC2), control agents of Table 8, read-out: MIC (in brackets beside MBEC)): < 0.5 µg/mL
